In patent US20230321261A1, “AXL-SPECIFIC ANTIBODY-DRUG CONJUGATES FOR CANCER TREATMENT” (GENMAB A/S, priority 2016, published 2023):
“And” between values parts separate entries of the source, which are not always exact repeats. Equal entries are not always repeated.

How the values were obtained:
A431 cells = assay: Antibody-dependent cell-mediated cytotoxicity (51Cr release); type: cell-based, human; details: concentrations up to 10 µg/mL; PBMC effector to target ratio 100:1
Procedure: The ability of anti-AXL antibodies to induce ADCC of A431 epidermoid carcinoma cells was determined as explained below. As effector cells, peripheral blood mononuclear cells from healthy volunteers (UMC Utrecht, The Netherlands) were used.
A431 cells were collected (5×10^6 cells) in culture medium (RPMI 1640 culture medium supplemented with 10% fetal calf serum (FSC)), to which 100 µCi ^51Cr (Chromium-51; Amersham Biosciences Europe GmbH, Roosendaal, The Netherlands) had been added, and the mixture was incubated in a 37° C. water bath for 1 hour (hr) while shaking. After washing of the cells (twice in PBS, 1200 rpm, 5 min), the cells were resuspended in RPMI1640/10% FSC and counted by trypan blue exclusion. […]
Peripheral blood mononuclear cells (healthy volunteers, UMC Utrecht, Utrecht, The Netherlands) were isolated from 45 mL of freshly drawn heparin blood by Ficoll (Bio Whittaker; lymphocyte separation medium, cat 17-829E) according to the manufacturer’s instructions. After resuspension of cells in RPMI1640/10% FSC, cells were counted by trypan blue exclusion and diluted to a density of 1×10^7 cells/mL.
50 µl of ^51Cr-labeled targets cells were pipetted into 96-well plates, and 50 µl of antibody were added, diluted in RPMI1640/10% FSC (3-fold dilutions at final concentrations range 0.01-10 µg/mL). […] The percentage specific lysis was calculated as follows: […]

SKMEL147 tumors = assay: SKMEL147 melanoma xenograft model; type: in vivo, NMRI nude mice
MEK½ = system: T1, MEK½; details: Pheneger et al., 2006; read-out: Primary Target(s) (IC50): MEK½; cited from earlier work
T1 construct: other: Pheneger et al., 2006

SKMEL147 = assay: Melanoma cell viability (CellTiter-Glo); type: cell-based, human; details: for HuMax-AXL-ADC sensitivity: 0.0001 to 10 µg/mL, 5 days
A875 = assay: Melanoma cell viability (CellTiter-Glo); type: cell-based, human; details: for HuMax-AXL-ADC sensitivity: 0.0001 to 10 µg/mL, 5 days
A431 tumors = assay: A431 xenograft model (high Gas6); type: in vivo, SCID mice; details: 3 mg/kg
Procedure: (§1) Tumor induction was performed by subcutaneous injection of 5 × 10^6 A431 or LCLC-103H tumor cells (both obtained from Leibniz-Institut - Deutsche Sammlung von Mikroorganismen und Zellkulturen GmbH (DSMZ)) in 200 µL PBS in the right flank of female SCID mice. Treatment was started 14-21 days after tumor cell inoculation, when the average tumor size was >100-200 mm^3 and distinct tumor growth was observed. Mice received a single injection or a total of 4 biweekly intraperitoneal injections with IgG1-AXL-vcMMAE ADCs or control antibody (unconjugated IgG1-b12), as indicated. Tumor volume was determined at least two times per week. Tumor volumes (mm^3) were calculated from caliper (PLEXX) measurements as: 0.52 × (length) × (width)^2.

M016 = assay: Patient-derived melanoma culture viability (CellTiter-Glo); type: cell-based, human; details: for HuMax-AXL-ADC sensitivity: 8 days
SKMEL28R = assay: Melanoma cell viability (CellTiter-Glo); type: cell-based, human; details: for HuMax-AXL-ADC sensitivity: 0.0001 to 10 µg/mL, 5 days
PAXF1657 tumors = assay: PAXF1657 pancreas cancer PDX model; type: in vivo, NMRI nu/nu mice; details: day 0
SKMEL28 = assay: Melanoma cell viability (CellTiter-Glo); type: cell-based, human; details: for HuMax-AXL-ADC sensitivity: 0.0001 to 10 µg/mL, 5 days
M082 = assay: Patient-derived melanoma culture viability (CellTiter-Glo); type: cell-based, human; details: for HuMax-AXL-ADC sensitivity: 8 days
COLO679 = assay: Melanoma cell viability (CellTiter-Glo); type: cell-based, human; details: 0.0001 to 10 µg/mL, 5 days
[1] = system: LCLC-103H xenograft tumors; assay: LCLC-103H xenograft model; type: in vivo, SCID mice
Procedure: 5 × 10^6 LCLC-103H (large cell lung carcinoma) tumor cells (obtained from Leibniz-Institut DSMZ-Deutsche Sammlung von Mikroorganismen und Zellkulturen GmbH (DSMZ)) in 200 µL PBS were injected subcutaneously in the right flank of female SCID mice. Starting 14-21 days after tumor cell inoculation, when the average tumor size was >100-200 mm^3 and distinct tumor growth was observed, a single injection with 1 mg/kg (20 µg/mouse) IgG1-AXL-vcMMAE antibodies (as described in Supplementary Example 1) or control (unconjugated IgG1-b12) was given intraperitoneally (100 µL/mouse). Tumor volume was determined at least two times per week. Tumor volumes (mm^3) were calculated from caliper (PLEXX) measurements as: 0.52 × (length) × (width)^2.
as §1, with “Mice received a single injection or a total of 4 biweekly intraperitoneal injections with IgG1-AXL-vcMMAE ADCs or control antibody (unconjugated IgG1-b12), as indicated.” left out

C-Raf/BRAF/BRAF V600E = details: read-out: Primary Target(s) (IC50): C-Raf/BRAF/BRAF V600E; Mordant et al., 2010; cited from earlier work
MAP4K5 (KHS1) = MAP4K5 (KHS1) (Homo sapiens, UniProt Q9Y4K4); details: Bollag et al., 2010; read-out: Primary Target(s) (IC50): MAP4K5 (KHS1); cited from earlier work
Sequence of MAP4K5 (KHS1) (Q9Y4K4 whole entry, species assumed): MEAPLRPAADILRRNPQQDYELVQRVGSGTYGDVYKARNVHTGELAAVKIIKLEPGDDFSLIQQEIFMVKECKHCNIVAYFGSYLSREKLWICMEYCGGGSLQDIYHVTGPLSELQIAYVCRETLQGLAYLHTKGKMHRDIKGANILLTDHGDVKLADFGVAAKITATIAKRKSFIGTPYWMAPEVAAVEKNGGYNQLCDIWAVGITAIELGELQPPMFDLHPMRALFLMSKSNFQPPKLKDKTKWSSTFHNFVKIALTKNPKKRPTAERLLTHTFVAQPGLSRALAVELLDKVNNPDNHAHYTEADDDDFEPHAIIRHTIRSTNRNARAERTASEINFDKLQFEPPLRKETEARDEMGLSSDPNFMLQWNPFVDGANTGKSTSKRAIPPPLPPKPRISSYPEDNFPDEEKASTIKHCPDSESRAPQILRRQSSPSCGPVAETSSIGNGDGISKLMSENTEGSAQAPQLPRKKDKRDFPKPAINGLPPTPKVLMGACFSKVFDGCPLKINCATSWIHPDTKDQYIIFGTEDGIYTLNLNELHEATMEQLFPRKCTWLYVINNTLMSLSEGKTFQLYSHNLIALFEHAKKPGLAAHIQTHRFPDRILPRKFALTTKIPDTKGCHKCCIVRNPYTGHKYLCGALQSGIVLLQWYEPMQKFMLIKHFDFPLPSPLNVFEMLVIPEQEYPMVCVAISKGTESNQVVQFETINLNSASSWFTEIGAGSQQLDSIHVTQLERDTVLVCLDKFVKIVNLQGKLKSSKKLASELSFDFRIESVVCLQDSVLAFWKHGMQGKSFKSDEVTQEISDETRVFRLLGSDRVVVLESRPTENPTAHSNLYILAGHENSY

SKMEL2R = assay: NRAS mutant melanoma cell viability (CellTiter-Glo); type: cell-based, human
SKMEL2 = assay: as above; type: cell-based, human
M019R = assay: Patient-derived melanoma culture viability (CellTiter-Glo); type: cell-based, human
MEK1 = MEK1 (Homo sapiens, UniProt Q02750); details: read-out: Primary Target(s) (IC50): MEK1; cited from earlier work
Sequence of MEK1 (Q02750 whole entry): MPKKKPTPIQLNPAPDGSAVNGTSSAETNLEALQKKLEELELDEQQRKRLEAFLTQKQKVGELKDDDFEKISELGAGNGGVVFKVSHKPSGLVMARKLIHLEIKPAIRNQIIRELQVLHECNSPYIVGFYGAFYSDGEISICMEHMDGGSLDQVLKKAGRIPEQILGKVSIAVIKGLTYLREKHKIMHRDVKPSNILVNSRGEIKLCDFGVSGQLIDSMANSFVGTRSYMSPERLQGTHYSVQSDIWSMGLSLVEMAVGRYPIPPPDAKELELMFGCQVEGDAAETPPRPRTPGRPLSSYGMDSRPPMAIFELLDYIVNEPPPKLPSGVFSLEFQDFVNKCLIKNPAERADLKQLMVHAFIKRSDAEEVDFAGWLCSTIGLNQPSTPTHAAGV

C-Raf = C-Raf (Homo sapiens, UniProt P04049); details: literature reference per drug in Table 1; read-out: Primary Target(s) (IC50): C-Raf (also printed Raf-1, C-Raf-1, C-RAF); cited from earlier work
Sequence of C-Raf (P04049 whole entry): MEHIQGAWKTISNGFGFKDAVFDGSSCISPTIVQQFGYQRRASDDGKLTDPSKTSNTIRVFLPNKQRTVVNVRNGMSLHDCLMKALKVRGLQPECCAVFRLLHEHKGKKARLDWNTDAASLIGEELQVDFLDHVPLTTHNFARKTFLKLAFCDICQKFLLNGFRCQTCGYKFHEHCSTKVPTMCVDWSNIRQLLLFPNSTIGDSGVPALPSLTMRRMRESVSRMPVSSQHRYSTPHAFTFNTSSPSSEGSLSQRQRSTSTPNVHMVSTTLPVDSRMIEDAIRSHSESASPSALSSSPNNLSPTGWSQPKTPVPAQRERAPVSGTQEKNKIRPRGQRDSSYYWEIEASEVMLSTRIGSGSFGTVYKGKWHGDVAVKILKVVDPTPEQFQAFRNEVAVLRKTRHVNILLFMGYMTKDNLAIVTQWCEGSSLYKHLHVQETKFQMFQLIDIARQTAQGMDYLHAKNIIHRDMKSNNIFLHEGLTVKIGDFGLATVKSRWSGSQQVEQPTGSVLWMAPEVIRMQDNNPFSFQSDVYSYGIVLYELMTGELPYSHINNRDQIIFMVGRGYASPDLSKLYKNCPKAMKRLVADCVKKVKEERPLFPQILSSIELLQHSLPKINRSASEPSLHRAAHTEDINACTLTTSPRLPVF

FM6 = assay: NRAS mutant melanoma cell viability (CellTiter-Glo); type: cell-based, human
A375R = assay: Melanoma cell viability (CellTiter-Glo); type: cell-based, human
BLM = assay: NRAS mutant melanoma cell viability (CellTiter-Glo); type: cell-based, human
[2] = 4 mg/kg i.v. on day 12 and day 19 after tumor cell injection

In the case of “IgG1-AXL-107: AXL-specific human IgG1,κ antibody, VH SEQ ID NO:1, VL SEQ ID NO:2, Ig1 domain binding”, the “ADCC in A431 cells (percentage specific lysis)” value (A431 cells) is reported as “did not induce significant ADCC” and the “anti-tumor activity in the SKMEL147 melanoma xenograft model” value (SKMEL147 tumors; [2]) is reported as “did not show tumor growth inhibition”.
In the case of `Cn1cnc2c(F)c(Nc3ccc(Br)cc3F)c(C(=O)NOCCO)cc21` [Binimetinib, 1H-Benzimidazole-6-carboxamide, 5-[(4-bromo-2-fluorophenyl)amino]-4-fluoro-N-(2-hydroxyethoxy)-1-methyl-], the IC50 (MEK½) is given as ~0.012 µM and 0.012 µM.
For IgG1-AXL-107-vcMMAE, the HuMax-AXL-ADC sensitivity (SKMEL147) was “sensitive”, the HuMax-AXL-ADC sensitivity (SKMEL147; listed as HuMax-AXL-ADC) was “Sensitive” and the HuMax-AXL-ADC sensitivity (A875) was “sensitive”. For the same compound, the HuMax-AXL-ADC sensitivity (A875; listed as HuMax-AXL-ADC) was “Sensitive”, the “anti-tumor activity in the A431 xenograft model” value (A431 tumors) was “growth inhibition” and the HuMax-AXL-ADC sensitivity (M016) was “sensitive”. The HuMax-AXL-ADC sensitivity (M016; listed as HuMax-AXL-ADC) was “Sensitive”, the HuMax-AXL-ADC sensitivity (SKMEL28R) was “sensitive” and the HuMax-AXL-ADC sensitivity (SKMEL28R; listed as HuMax-AXL-ADC) was “Sensitive”. The “growth of PAXF1657 tumors compared to the control group” value (PAXF1657 tumors; 2 mg/kg i.v.) was “significantly reduced the growth”, the “growth of PAXF1657 tumors” value (PAXF1657 tumors; 4 mg/kg i.v.) was “induced tumor regression” and the HuMax-AXL-ADC sensitivity (SKMEL28) was “did not show changes in viability”. The HuMax-AXL-ADC sensitivity (SKMEL28; listed as HuMax-AXL-ADC) was “Resistant”, the HuMax-AXL-ADC sensitivity (M082) was “did not show a different response” and the HuMax-AXL-ADC sensitivity (M082; listed as HuMax-AXL-ADC) was “Insensitive”. The “anti-tumor activity in the SKMEL147 melanoma xenograft model” value (SKMEL147 tumors; 2 mg/kg i.v. on day 12 and day 19 after tumor cell injection) was “tumor growth inhibition”, the “day until which tumor regression lasted” value (SKMEL147 tumors; 4 mg/kg) was roughly 50 days and the “anti-tumor activity in the SKMEL147 melanoma xenograft model” value (SKMEL147 tumors; [2]) was “strong tumor regression”. The “anti-tumor activity in the SKMEL147 melanoma xenograft model” value (SKMEL147 tumors; 4 mg/kg i.v. on day 12 and day 19 after tumor cell injection, listed as HuMax-AXL-ADC) was “profound anti-tumor effect”, the “effect of retreatment after tumor regrowth” value (SKMEL147 tumors; single dose of 4 mg/kg on day 55, n=4) was “tumor regression in all four mice” and the HuMax-AXL-ADC sensitivity (COLO679) was “did not show changes in viability”. For the same compound, the HuMax-AXL-ADC sensitivity (COLO679; listed as HuMax-AXL-ADC) was “Resistant”, the “anti-tumor activity in the LCLC-103H xenograft model” value ([1]; 1 mg/kg (Example 13, FIG. 14B)) was “regression” and the “anti-tumor activity in established SC LCLC-103H tumors” value ([1]; single injection 1 mg/kg intraperitoneally (Example 9)) was “tumor regression”.
In the case of `Cn1c(Nc2ccc(C(F)(F)F)cc2)nc2cc(Oc3ccnc(-c4ncc(C(F)(F)F)[nH]4)c3)ccc21` [RAF265, 1-methyl-5-[2-[5-(trifluoromethyl)-1H-imidazol-2-yl]pyridin-4-yl]oxy-N-[4-(trifluoromethyl)phenyl]benzimidazol-2-amine], the IC50 (C-Raf/BRAF/BRAF V600E) is listed as 0.003 to 0.06 µM.
For `CCCS(=O)(=O)Nc1ccc(F)c(C(=O)c2c[nH]c3ncc(-c4ccc(Cl)cc4)cc23)c1F` [Vemurafenib, N-[3-[[5-(4-chlorophenyl)-1H-pyrrolo[2,3-b]pyridin-3-yl]carbonyl]-2,4-difluorophenyl]-1-propanesulfonamide], the IC50 (MAP4K5 (KHS1)) is listed as 0.051 µM.
In the case of `CC(=O)Nc1cccc(-n2c(=O)n(C3CC3)c(=O)c3c(Nc4ccc(I)cc4F)n(C)c(=O)c(C)c32)c1` [Trametinib, N-(3-(3-cyclopropyl-5-(2-fluoro-4-iodophenylamino)-6,8-dimethyl-2,4,7-trioxo-3,4,6,7-tetrahydropyrido[4,3-d]pyrimidin-1(2H)-yl)phenyl)acetamide], the trametinib sensitivity (SKMEL2R) is reported as “insensitive”, the trametinib sensitivity (SKMEL2) is reported as “sensitive” and the “drug sensitivity in vitro: trametinib sensitivity” value (M019R; M019R, 8 days) is reported as “insensitive”.
For `O=C(c1ccc(F)c(F)c1Nc1ccc(I)cc1F)N1CC(O)([C@@H]2CCCCN2)C1` [Cobimetinib, [3,4-difluoro-2-[(2-fluoro-4-iodophenyl)amino]phenyl][3-hydroxy-3-(2S)-2-piperidinyl-1-azetidinyl]-methanone], the IC50 (MEK1) is given as roughly 0.0042 µM.
For `CN(C)CCOc1ccc(-c2nc(-c3ccncc3)c(-c3ccc4c(c3)CC/C4=N\O)[nH]2)cc1` [SB590885, (E)-5-(2-(4-(2-(dimethylamino)ethoxy)phenyl)-4-(pyridin-4-yl)-1H-imidazol-5-yl)-2,3-dihydroinden-1-one oxime], the IC50 (C-Raf) is given as 0.00172 µM.
For `CCCS(=O)(=O)Nc1ccc(F)c(C(=O)c2c[nH]c3ncc(Cl)cc23)c1F` [PLX4720, N-(3-(5-chloro-1H-pyrrolo[2,3-b]pyridine-3-carbonyl)-2,4-difluorophenyl)propane-1-sulfonamide], the PLX4720 sensitivity (SKMEL2R) was “insensitive”, the PLX4720 sensitivity (SKMEL147) was “resistant” and the PLX4720 sensitivity (A875) was “sensitive”. The PLX4720 sensitivity (FM6) was “insensitive”, the PLX4720 sensitivity (A375R) was “resistant” and the PLX4720 sensitivity (SKMEL2) was “insensitive”. For the same compound, the PLX4720 sensitivity (BLM) was “insensitive”, the PLX4720 sensitivity (M016) was “resistant” and the PLX4720 sensitivity (SKMEL28R) was “resistant”. The PLX4720 sensitivity (M019R; M019R (Table 16)) was “resistant”, the “drug sensitivity in vitro: PLX4720 sensitivity” value (M019R; M019R, 8 days) was “insensitive” and the PLX4720 sensitivity (SKMEL28) was “sensitive”. For the same compound, the PLX4720 sensitivity (M082) was “resistant”.
